Measurements published in US20110319484A1, “NEUROPROTECTIVE COMPOUNDS” (Parque Tecnologico de Ciencias de la Salud, priority 2009, published 2011).

Experiments:
[1] = system: zebrafish larvae; experiment: Inhibition of TBH-induced apoptosis in the brain of the zebrafish embryo (Acridine Orange); type: in vivo, zebrafish (Danio rerio); details: zebrafish larvae 96 hpf, TBH 0.45 mM, compound 1 μg/ml, 24 h
Procedure: To that end, an assay was performed on zebrafish larvae (96 hours post-fertilization). The fertilized eggs were obtained by a natural birth of adult zebrafish (AB strain) in the inventors' laboratory, carried out according to what is described in The Zebrafish Book [Westerfield, M. (1995) The Zebrafish Book. A Guide for the Laboratory Use of Zebrafish (Danio rerio). 3rd ed., University of Oregon Press, Eugene]. The eggs were collected in the 1st hour after spawning, washed and deposited in a clean Petri dish with embryo water (medium) (4.9 mM NaCl, 0.17 mM KCl, 0.33 mM CaCl.2H2O, 0.33 .mM MgSO4.7H2O, pH 7.2) prepared following the guidelines described in the book Zebrafish. Practical approach [Nusslein-Volhard, C and Dahm, R (2002) Zebrafish. Practical approach. Oxford: Oxford University Press].
The inhibition caused by the NST0003, NST0004 and NST0005 compounds on cell death caused by the tert-butyl hydroperoxide (TBH) compound, which is a pro-oxidizing compound which induces specific neurotoxicity in zebrafish larvae by means of the mechanism of apoptosis, was analyzed.
The larvae (at 96 hours post-fertilization [hpf]) were seeded in 96-well plates (3 larvae/well), performing a triplicate (3 wells) for experimental condition, thus obtaining an intra-assay triplicate. The larvae were treated in a total volume of embryo medium of 100 μl per well for the following conditions: (i) control (embryo medium); (ii), TBH [0.45 mM], which corresponds with the maximum tolerated dose (MTD), which induces neurotoxicity in the larvae but not mortality; and (iii) TBH [0.45 mM] and NST0003, NST0004 and NST0005, all at the concentration of 1 μg/ml. […]
Thus, the control larvae and the treated larvae were immersed in 1 μg/ml of AO in embryo water at 28.5° C. for 60 minutes. […] AO is a fluorescent compound which can be readily measured and quantified with a fluorometer. Therefore, the larvae were anesthetized with tricaine (3-aminobenzoic acid ethyl ester) and homogenized for their subsequent reading in a fluorescence plate reader (excitation: 488 nm; emission: 530 nm). […]

[2] = target: T1, HMG-CoA reductase enzyme (Homo sapiens, UniProt P04035); experiment: HMG-CoA reductase inhibition, spectrophotometric NADPH oxidation at 340 nm; type: biochemical; details: for IC50: four independent assays, Trimmed Spearman-Karber method; for inhibition power of HMG-CoA reductase, times less than that of atorvastatin: relative to atorvastatin
T1 construct: the oxidation of the NADPH by the catalytic subunit of the HMG-CoA reductase
T1 sequence (P04035 340-888 limits assumed): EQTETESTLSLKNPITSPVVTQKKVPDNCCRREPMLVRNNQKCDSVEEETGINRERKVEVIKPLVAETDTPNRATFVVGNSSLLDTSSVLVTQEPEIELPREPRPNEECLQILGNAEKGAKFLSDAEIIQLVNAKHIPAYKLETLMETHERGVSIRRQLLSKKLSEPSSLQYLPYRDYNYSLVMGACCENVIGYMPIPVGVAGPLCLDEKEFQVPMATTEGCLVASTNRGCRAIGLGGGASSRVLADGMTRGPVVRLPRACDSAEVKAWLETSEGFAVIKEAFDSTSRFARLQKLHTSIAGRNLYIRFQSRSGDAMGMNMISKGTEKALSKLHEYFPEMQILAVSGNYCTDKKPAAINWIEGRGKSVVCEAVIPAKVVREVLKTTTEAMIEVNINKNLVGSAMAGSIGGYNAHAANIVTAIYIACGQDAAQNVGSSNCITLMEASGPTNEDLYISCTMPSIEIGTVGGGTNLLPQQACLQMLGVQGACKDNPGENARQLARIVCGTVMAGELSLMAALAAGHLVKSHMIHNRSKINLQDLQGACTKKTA
From the text: To that end, the degree of inhibition of the HMG-CoA reductase enzyme by the different (1S,3R,7S,8S,8aR)-1,2,3,7,8,8a-hexahydro-3,7-dimethyl-8-[2-[(2R,4R)-tetrahydro-4-hydroxy-6-oxo-2H-pyran-2-yl]ethyl-1-naphthalenyl propanoate derivatives, optionally mono- or di-methylated at the carbon in the alpha position of propanoic acid (NST0003, NST0004 and NST0005) was studied.
During the reaction, the HMG-CoA reductase uses NADPH as a reducing agent and 3-hydroxy-3-methylglutaryl coenzyme A (HMG-CoA) as a substrate. Mevalonic acid, which serves as a substrate for the following reaction in order to continue with the cholesterol synthesis, is obtained as a reaction product. The enzymatic reaction object of study is schematically shown as follows:
This in vitro assay is based on the spectrophotometric measurement of the decrease of absorbance at 340 nm, representing the oxidation of the NADPH by the catalytic subunit of the HMG-CoA reductase in the presence of the HMG-CoA reductase substrate. The assay was carried out in a 96-well plate, with a total reaction volume of 200 μl. The reaction buffer (50 mM KH2PO4, 1 M KCl, 2 mg/ml bovine serum albumin (BSA) and 5 mM DTT, at pH=7.3) was prepared at the time of carrying out the reaction and was maintained at 37° C.
Four independent assays were carried out. […] The concentrations of the reagents involved in the reaction mixture were the following: 0.2 mM HMG-CoA, 3 μU/reaction HMG-CoA reductase and 0.2 mM NADPH. After brief agitation, the reading of the plate was taken in a spectrophotometer at the conditions of 340 nm, 37° C., detecting the decrease of absorbance at 340 nm over time. The percentage of HMG-CoA reductase enzymatic activity with respect to the control was calculated. The IC50 was calculated with the data obtained by means of the Trimmed Spearman-Karber method (Version 1.5).

Compound: CCC(=O)O[C@H]1C[C@@H](C)C=C2C=C[C@H](C)[C@H](CC[C@@H]3C[C@@H](O)CC(=O)O3)[C@H]21 [NST0003, (1S,3R,7S,8S,8aR)-1,2,3,7,8,8a-hexahydro-3,7-dimethyl-8-[2-[(2R,4R)-tetrahydro-4-hydroxy-6-oxo-2H-pyran-2-yl]ethyl-1-naphthalenyl propanoate]
- reduction of apoptosis induced by TBH [1]: 50.7±17.1%
- IC50 [2]: 40.6 µM
- inhibition power of HMG-CoA reductase, times less than that of atorvastatin [2]: 170 times

Compound: CC(C)C(=O)O[C@H]1C[C@@H](C)C=C2C=C[C@H](C)[C@H](CC[C@@H]3C[C@@H](O)CC(=O)O3)[C@H]21 [NST0004]
- reduction of apoptosis induced by TBH [1]: 45.3±18.9%
- IC50 [2]: 23.2 µM
- inhibition power of HMG-CoA reductase, times less than that of atorvastatin [2]: 100 times

Compound: C[C@H]1C=C2C=C[C@H](C)[C@H](CC[C@@H]3C[C@@H](O)CC(=O)O3)[C@H]2[C@@H](OC(=O)C(C)(C)C)C1 [NST0005]
- reduction of apoptosis induced by TBH [1]: 34.3±17.3%
- IC50 [2]: 0.865 µM
- inhibition power of HMG-CoA reductase, times less than that of atorvastatin [2]: 4 times
